Experimental data as given in EP0378881B1, “Synthetic peptides and their use as universal carriers for the preparation of immunogenic conjugates suitable for the development of synthetic vaccines” ([…] S.p.A., priority 1989, dated 1993).
“Also recorded” adds a separate entry of the source. Where two headings read alike, the source gives them in different places.

Tests used:
[1] = test system: T-cellular clones which are specific for TT=2; format: cell-based, human
[2] = test system: T-cellular clones which are specific for TT=2; format: cell-based, human; remark: listed apart in the source
[3] = test system: Mononucleated cells of peripheral blood (PBMC); format: cell-based, human
[4] = test system: anti-CSP antibody response; settings: cited from earlier work

Gln-Tyr-Ile-Lys-Ala-Asn-Ser-Lys-Phe-Ile-Gly-Ile-Thr-Glu (QYIKANSKFIGITE; printed: Gln-Tyr-Ile-Lys-Ala-Asn-Ser-Lys-Phe-Ile-Gly-Ile-Thr-Glu) [TT=2, synthetic peptide corresponding to TT segment 830-843]
DR alleles in association with which the clone recognizes TT=2 [1]: DR1, 2, 4w4 and 7; also recorded: DR5JVM and 6 | DR alleles that can be used as restriction molecules [1]: DR1-9, 4 x 4, 5JVM and DRw52b | concentrations of the peptide at which all the clones react (dose-response plot) [1]: 0.1 to 2 µM | isotype of the II-class molecules recognized by the clones [1]: restricted DRs | proliferation of the isolated clones in response to the antigen [1]: proliferate responsively | minimum antigenic sequence (epitope) recognized by the T-cells [2]: single 831-842 epitope | TT=2-specific cells as share of all the T cells which were specific for the Tetanus Toxoid (TT) [3]: ≤ 5%

H-(Asn-Ala-Asn-Pro)n
anti-CSP antibody response ([4]; CBA/ca mice): not able to induce | anti-CSP antibody response ([4]; DBA/2 mice): not able to induce

NANP₄₀: polymer (Asn-Ala-Asn-Pro)₄₀ obtained by polymerizing the activated monomer
responder status of the mouse strain ([4]; C57/8L/6 mice): natural responders | responder status of the mouse strain ([4]; CB4/ca mice): non-responders | responder status of the mouse strain ([4]; DBA/2 mice): non-responders
